Measured values from patent US9844546B2, “Antibody against human HIF hydroxylase” (OXFORD UNIVERSITY INNOVATION LIMITED, priority 2001, dated 2017).
“Also recorded” adds a separate entry of the source.

System: pVHL
Assay: pVHL capture assay using biotinylated synthetic polypeptides
Type: binding, human
Conditions: wild type or mutant (Pro86His) pVHL; with or without cell extract
Method: We synthesized a polypeptide (HIF-1α residues 556-574), containing a trans-4-hydroxy-S-proline residue at position 564 (19:Pro564Hyp), since the trans-4-hydroxylation is the commonest enzymatic proline oxidation (25). A polypeptide blocking assay was carried out using the 19:Pro564Hyp modified polypeptide and, as a control, the unmodified polypeptide without the trans-4-hydroxylation (19:WT). The 19:WT polypeptide was either incubated with cell extract before the binding assay or was untreated. The 19:Pro564Hyp polypeptide was added to a mixture of HIF-1α and pVHL-HA IVTTs at a concentration of 1, 0.25, 0.05 or 0.01 μM and the cell extract treated or untreated 19:WT polypeptide at a concentration of 0.5 μM. Interaction of HIF-1α with pVHL was then assayed by anti-HA immunoprecipitation. […] A pVHL capture assay was then carried out using biotinylated synthetic polypeptides. The same polypeptides, 19:Pro564Hyp and 19:WT were assessed for the ability to capture wild type or mutant (Pro86His) pVHL. […] In both cases capture was specific for wild type, as opposed to mutant, pVHL.
• 1. G. L. Semenza, Genes Dev 14, 1983-91. (2000). • 2. N. V. Iyer, et al., Genes Dev. 12, 149-162 (1997). • 3. E. Maltepe, J. V. Schmidt, D. Baunoch, C. A. Bradfield, M. C. Simon, Nature 386, 403-407 (1997). • 4. G. L. Wang, B.-H. Jiang, E. A. Rue, G. L. Semenza, Proc. Natl. Acad. Sci. USA 92, 5510-5514 (1995). • 5. […]

Substance	capture of pVHL by biotinylated polypeptide
19:Pro564Hyp: polypeptide (HIF-1α residues 556-574) containing a trans-4-hydroxy-S-proline residue at position 564	captured wild type pVHL without pre-treatment; also recorded: specifically captured wild type but not mutant pVHL
19:WT: polypeptide comprising HIF-1α residues 556 to 574	captured pVHL only after incubation with cell extract; also recorded: could not interact without prior incubation with cell extract
